By IC50 is commonly meant the concentration needed to halve the response being measured.

Molecules are shown by their SMILES. Where two headings read alike, the source gives them in different places. Where only a bound is given, the exact number is not on record here.

For one assay, the system named is MV4-11 (Leukemia). As to the kind of experiment: WST-1 anticancer cell proliferation assay, MV4-11. Type of assay: cell-based. The protocol: (§1) Anticancer activity was tested against several standard cancer cell lines including brain, breast, Kaposi sarcoma, leukemia, lung, melanoma, tenosynovial giant cell tumor, ovarian, pancreatic, colon and prostate cancer. Cells were trypsinized and plated into 96 well plates in 50 μl of media and incubated overnight. The next day approximately 18 hours after plating, 50 μl of media containing the required flavonoid-based pharmaceutical composition was added per well. Cells were plated at a density so that 72 hours post drug addition, the cells will be in log phase (500)-2000 cells/well). The compounds and extracts were solubilized in Dimethyl sulfoxide (DMSO). The cells are allowed to proliferate for 72 hours 37° C. in humidified atmosphere of 5% CO2. The experiment is terminated using WST-1 (Roche®) 10 μl per well and absorbance is read at 450 nm %690 nm. The effect of drugs on growth is assessed as percent of cell viability. The IC50 values were determined from the extract dose versus control growth curves using Graphpad Prism® software. All experiments were carried out in duplicate and the mean results determined.
On the technique in general: Tetrazolium assays rely on reduction of a dye to a coloured formazan, in cell work by metabolically active cells.

A further assay has as its system Normal Bone marrow. The experiment in a line: Cell viability, normal bone marrow. Type of assay: cell-based. The conditions noted are these: Table 4. The protocol:
as §1, with “Bioactivity of the above-described compounds has been verified by an anticancer cell proliferation assay using the WST-1 (4-[3-(4-iodophenyl)-2-(4-nitrophenyl)-2H-5-tetrazolio]-1, 3-benzene disulfonate) colorimetric assay by Roche Life Sciences®. Anticancer” for “Anticancer”

Another assay deals with T1, FLT3(ITD) (Homo sapiens, UniProt P36888).
T1 construct: In general, full-length constructs were used for small, single domain kinases, and catalytic domain constructs for large multi-domain kinases; fused on or other part: T7 phage fusion or DNA tag for qPCR detection (general statement)
T1 sequence (P36888 1-993): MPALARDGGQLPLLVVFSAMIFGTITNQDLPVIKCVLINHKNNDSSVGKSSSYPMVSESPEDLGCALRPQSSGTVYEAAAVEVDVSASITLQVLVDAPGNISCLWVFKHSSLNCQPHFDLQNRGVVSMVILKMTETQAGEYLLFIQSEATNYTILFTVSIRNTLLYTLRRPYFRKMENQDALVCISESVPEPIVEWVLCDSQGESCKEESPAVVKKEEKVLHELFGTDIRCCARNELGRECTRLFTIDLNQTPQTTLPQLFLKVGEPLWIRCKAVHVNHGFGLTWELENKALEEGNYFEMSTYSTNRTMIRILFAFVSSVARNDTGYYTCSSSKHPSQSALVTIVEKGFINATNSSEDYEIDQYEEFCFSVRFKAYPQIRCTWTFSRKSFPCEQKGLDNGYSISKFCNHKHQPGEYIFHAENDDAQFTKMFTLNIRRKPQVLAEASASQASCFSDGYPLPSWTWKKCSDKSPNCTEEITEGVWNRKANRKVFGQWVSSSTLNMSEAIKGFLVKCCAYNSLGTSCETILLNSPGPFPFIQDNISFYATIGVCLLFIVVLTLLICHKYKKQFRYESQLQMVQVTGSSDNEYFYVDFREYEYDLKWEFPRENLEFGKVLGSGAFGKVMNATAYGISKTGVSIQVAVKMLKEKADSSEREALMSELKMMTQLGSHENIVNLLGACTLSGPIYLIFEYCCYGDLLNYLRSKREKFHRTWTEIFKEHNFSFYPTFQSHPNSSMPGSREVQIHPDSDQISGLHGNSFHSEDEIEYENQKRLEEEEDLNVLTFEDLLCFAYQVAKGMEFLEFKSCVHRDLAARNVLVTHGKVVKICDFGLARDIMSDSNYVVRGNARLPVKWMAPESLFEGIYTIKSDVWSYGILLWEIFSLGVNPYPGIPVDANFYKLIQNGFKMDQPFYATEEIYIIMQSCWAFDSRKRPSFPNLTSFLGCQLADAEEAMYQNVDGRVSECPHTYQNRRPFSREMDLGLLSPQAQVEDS
In kind it is binding. The protocol:
Cannabis flavonoids and their analogs were subjected to kinase inhibition assay. The compounds were first screened at a single concentration of 10 μM in the primary assay. […] To determine the kd or IC50 values, competition binding assays were established, authenticated and executed as described previously. […] See also, Karaman et al., “A Quantitative Analysis Of Kinase Inhibitor Selectivity”, Nat. Biotechnol. […] For most assays, kinases were fused to T7 phage strains (Fabian, supra) and for the other assays, kinases were produced in HEK-293 cells after which they were tagged with DNA for quantitative PCR detection. In general, full-length constructs were used for small, single domain kinases, and catalytic domain constructs for large multi-domain kinases. […] The liganded beads were blocked with excess biotin and washed with blocking buffer (SeaBlock (Pierce), 1% BSA, 0.05% Tween 20, 1 mM DTT) to remove unbound ligand and to reduce non-specific phage binding. […] All reactions were performed in polypropylene 384-well plates in a final volume of 0.04 ml. […] The kinase concentration in the eluates was measured by quantitative PCR. An illustration of the kinase interaction process is presented below. Kd/IC50 values were determined using a standard dose response curve using the hill equation. Curves were fitted using a non-linear least square fit with the Levenberg-Marquardt algorithm.

In assay [1] the test system is MOLM-14 acute myeloid leukemia cell line. As to the kind of experiment: WST-1 anticancer cell proliferation assay, MOLM-14. Type of assay: cell-based. The settings on record: Table 4; read-out: Acute Myeloid Leukemia cell lines MOLM-14 IC50. The protocol:
as §1

In assay [2] the test system is THP-1 acute myeloid leukemia cell line. The experiment in a line: WST-1 anticancer cell proliferation assay, THP-1. In kind it is cell-based. The conditions noted are these: Table 4; read-out: Acute Myeloid Leukemia cell lines THP-1 IC50. The protocol: as §1
Where [3] appears, read: Table 4, read-out: Acute Myeloid Leukemia cell lines MV4-11 IC50.
Setting [4] is: Table 4, read-out: Acute Myeloid Leukemia Kinases FLT3-ITD IC50.
Where [5] appears, read: Table 1 kinase panel, read-out: IC50 (nM) FLT3(ITD).
Where [6] appears, read: Table 3, 72 hours, WST-1, read-out: IC50 (μM) MV4-11 (Leukemia).

Regarding `COc1cc(-c2cc(=O)c3c(O)c(OC)c(O)cc3o2)ccc1O` [FBLGS-86], the concentration for half-maximal inhibition (IC50) was 2.2 µM in the assay with MV4-11 (Leukemia) (setting [3]); > 100 µM in the assay on Normal Bone marrow; 45 nM on FLT3(ITD) (setting [4]); 3.1 µM in assay [1]; > 100 µM in assay [2].
Take `O=c1c(O)c(-c2ccc(O)c(O)c2)oc2cc(O)cc(O)c12` [FBLGS-84]: the IC50 in the assay with MV4-11 (Leukemia) (setting [3]) was 6.3 µM; with Normal Bone marrow it was > 100 µM; at FLT3(ITD) (setting [4]), 453 nM; in assay [1], 7.42 µM.
As for `Cc1cc2oc(-c3cccc(N)c3)cc(=O)c2c([N+](=O)[O-])c1C` [FBLGS-76], the IC50 in the assay with MV4-11 (Leukemia) (setting [3]) was 1.9 µM; with Normal Bone marrow, > 100 µM; on FLT3(ITD) (setting [4]), 750 nM; in assay [1], 2.3 µM; in assay [2] it was > 100 µM.
Turning to `COc1cc(O)c2c(=O)c(O)c(-c3ccc(O)c(O)c3)oc2c1` [FBLGS-78], the IC50 with MV4-11 (Leukemia) (setting [3]) was 5.62 µM; in the assay on Normal Bone marrow, > 100 µM; at FLT3(ITD) (setting [4]) it was 345 nM; in assay [1] it was 5.73 µM; in assay [2] it was > 100 µM.
On to `COc1ccc(C2CC(=O)c3c(O)cc(O)cc3O2)cc1O` (stereo not shown) [FBLGS-74], for which the IC50 with MV4-11 (Leukemia) (setting [3]) is > 100 µM; in the assay with Normal Bone marrow, > 100 µM; on FLT3(ITD) (setting [4]), 9090 nM; in assay [1], > 100 µM; in assay [2] it was > 100 µM.
Take `O=c1cc(-c2ccccc2)oc2cc(O)cc(O)c12` [FBLGS-75]: the IC50 with MV4-11 (Leukemia) (setting [3]) is 4.35 µM; with Normal Bone marrow, > 100 µM; on FLT3(ITD) (setting [4]) it was 91 nM; in assay [1], 4.57 µM; in assay [2], > 100 µM.
As for `COc1cc(-c2cc(=O)c3c(O)c(C/C=C(\C)CCC=C(C)C)c(O)cc3o2)ccc1O` [FBL-03A], the concentration for half-maximal inhibition (IC50) at FLT3(ITD) (setting [5]) is > 20000 nM.
The same measure, in the same setting: under `COc1ccc(-c2cc(=O)c3c(O)c(C/C=C(\C)CCC=C(C)C)c(O)cc3o2)cc1OC` [FBL-03D] stands > 30000 nM.
On to `COc1cc(-c2oc3cc(O)ccc3c(=O)c2O)ccc1O` [FBLGS-81], for which the half-maximal inhibitory concentration (IC50) is 0.9 µM in the assay on MV4-11 (Leukemia) (setting [3]); > 100 µM in the assay with Normal Bone marrow; 3.8 nM on FLT3(ITD) (setting [4]); 0.7 µM in assay [1]; > 100 µM in assay [2].
`COc1cc(O)c2c(=O)c(O)c(-c3ccc(O)c(O)c3)oc2c1` [FBLGS-79]: the IC50 was 3.41 µM in the assay with MV4-11 (Leukemia) (setting [3]); > 100 µM in the assay on Normal Bone marrow; 84 nM at FLT3(ITD) (setting [4]); 4.84 µM in assay [1]; > 100 µM in assay [2].
Regarding `COc1cc(-c2cc(=O)c3c(O)c(CC=C(C)C)c(O)cc3o2)ccc1O` [FBL-03B], the IC50 with MV4-11 (Leukemia) (setting [6]) came out at 1.43 µM; on FLT3(ITD) (setting [5]), 57 nM.
As for `COc1cc(-c2cc(=O)c3c(O)cc(O)c(C/C=C(\C)CCC=C(C)C)c3o2)ccc1O` [FBL-03C], the IC50 at FLT3(ITD) (setting [5]) is > 20000 nM.
Take `COc1cc(-c2cc(=O)c3c(O)c(OC)c(OC)cc3o2)ccc1O` [FBLGS-85]: the 50% inhibitory concentration (IC50) in the assay on MV4-11 (Leukemia) (setting [3]) was 0.9 µM; with Normal Bone marrow it was > 100 µM; on FLT3(ITD) (setting [4]) it was 57 nM; in assay [1], 1.5 µM; in assay [2] it was > 100 µM.
For the compound `O=c1c(O)c(-c2ccc(O)c(O)c2)oc2cc(O)ccc12` [FBLGS-83], the half-maximal inhibitory concentration (IC50) with MV4-11 (Leukemia) (setting [3]) is 1.6 µM; on FLT3(ITD) (setting [4]), 180 nM; in assay [1] it was 2.35 µM; in assay [2] it was 13 µM.
As for `COc1cc(O)c2c(=O)c(O)c(-c3ccc(O)c(OC)c3)oc2c1` [FBLGS-80], the IC50 was 5.86 µM with MV4-11 (Leukemia) (setting [3]); > 100 µM in the assay on Normal Bone marrow; 84 nM at FLT3(ITD) (setting [4]); 6.12 µM in assay [1]; > 100 µM in assay [2].
For `O=c1cc(-c2ccc(O)c(O)c2)oc2cc(O)cc(O)c12` [FBLGS-77], the concentration for half-maximal inhibition (IC50) in the assay with MV4-11 (Leukemia) (setting [3]) was 7.21 µM; in the assay on Normal Bone marrow it was > 100 µM; at FLT3(ITD) (setting [4]), 799 nM; in assay [1], 7.34 µM; in assay [2], > 100 µM.
As for `COc1cc(-c2cc(=O)c3c(O)cc(O)c(CC=C(C)C)c3o2)ccc1O` [FBL-03G], the IC50 in the assay on MV4-11 (Leukemia) (setting [6]) was 3.1 µM; at FLT3(ITD) (setting [5]), < 1000 nM.
In the case of `O=C1CC(c2ccc(O)c(O)c2)Oc2cc(O)cc(O)c21` (stereo not shown) [FBLGS-82], the 50% inhibitory concentration (IC50) in the assay on MV4-11 (Leukemia) (setting [3]) is > 10 µM; in the assay on Normal Bone marrow, > 100 µM; on FLT3(ITD) (setting [4]) it was 12100 nM; in assay [1] it was > 10 µM; in assay [2] it was > 100 µM.
